Data as given in patent US20260042731A1, “(2,4-DICHLOROPHENOXY)ACETIC ACID ANALOGS” (CORTEVA AGRISCIENCE LLC, priority 2022, published 2026).
Like-named read-outs stand apart in the source and are kept apart here.

Columns and labels:
[1] = test system: Amaranthus rudis (AMATA), tall water hemp; assay: Postemergence herbicide evaluation, growth of Amaranthus rudis (AMATA); type: in vivo; settings: Amaranthus tuberculatus, post-emergence, percent reduction in plant size relative to untreated control, read-out: Ave. AMATA; for pest or weed control at 280 g/ha: 280 g ae/ha; for pest or weed control at 560 g/ha: 560 g ae/ha
[2] = test system: Ambrosia artemisiifolia (AMBEL), common ragweed; assay: Postemergence herbicide evaluation, growth of Ambrosia artemisiifolia (AMBEL); type: in vivo; settings: Ambrosia artemisiifolia, post-emergence, percent reduction in plant size relative to untreated control, read-out: AVE. AMBEL; for pest or weed control at 280 g/ha: 280 g ae/ha; for pest or weed control at 560 g/ha: 560 g ae/ha
[3] = test system: Abutilon theophrasti (ABUTH), velvetleaf; assay: Postemergence herbicide evaluation, growth of Abutilon theophrasti (ABUTH); type: in vivo; settings: Abutilon theophrasti, post-emergence, percent reduction in plant size relative to untreated control, read-out: AVE. ABUTH; for pest or weed control at 280 g/ha: 280 g ae/ha; for pest or weed control at 560 g/ha: 560 g ae/ha
[4] = test system: Chenopodium album (CHEAL), common lambsquarters; assay: Postemergence herbicide evaluation, growth of Chenopodium album (CHEAL); type: in vivo; settings: Chenopodium album, post-emergence, percent reduction in plant size relative to untreated control, read-out: Ave. CHEAL; for pest or weed control at 280 g/ha: 280 g ae/ha; for pest or weed control at 560 g/ha: 560 g ae/ha
[5] = test system: glyphosate resistant Conyza canadensis (L.) (ERICA), horseweed; assay: Postemergence herbicide evaluation, growth of Conyza canadensis (ERICA); type: in vivo; settings: Erigeron canadensis, post-emergence, percent reduction in plant size relative to untreated control, read-out: Ave. ERICA; for pest or weed control at 280 g/ha: 280 g ae/ha; for pest or weed control at 560 g/ha: 560 g ae/ha
[6] = Volatility of compounds measured by thermogravimetric analysis (TGA); type: physicochemical
[7] = test system: weeds (ABUTH, AMATA, AMBEL, CHEAL, ERICA); assay: Postemergence herbicide evaluation, overall average % weed control across ABUTH, AMATA, AMBEL, CHEAL, ERICA; type: in vivo; settings: post-emergence, average over the five weeds, read-out: Overall Ave % Weed Control; for pest or weed control at 280 g/ha: 280 g ae/ha; for pest or weed control at 560 g/ha: 560 g ae/ha
[8] = test system: Glycine max (Enlist E3 traited soybeans, GLXMA); settings: Enlist E3 soybeans, percent reduction in plant size relative to untreated control

## Cc1ccc(S(=O)(=O)NC(=O)COc2ccc(Cl)cc2Cl)cc1 [Compound D5]
[1]; 168 h, 7 DAA
  pest or weed control at 280 g/ha: 73%
  pest or weed control at 560 g/ha: 73%
[1]; 336 h, 14 DAA
  pest or weed control at 280 g/ha: 78%
  pest or weed control at 560 g/ha: 75%
[1]; 504 h, 21 DAA
  pest or weed control at 280 g/ha: 75%
  pest or weed control at 560 g/ha: 73%
[2]; 168 h, 7 DAA
  pest or weed control at 280 g/ha: 48%
  pest or weed control at 560 g/ha: 65%
[2]; 336 h, 14 DAA
  pest or weed control at 280 g/ha: 68%
  pest or weed control at 560 g/ha: 90%
[2]; 504 h, 21 DAA
  pest or weed control at 280 g/ha: 58%
  pest or weed control at 560 g/ha: 85%
[3]; 168 h, 7 DAA
  pest or weed control at 280 g/ha: 30%
  pest or weed control at 560 g/ha: 40%
[3]; 336 h, 14 DAA
  pest or weed control at 280 g/ha: 23%
  pest or weed control at 560 g/ha: 35%
[3]; 504 h, 21 DAA
  pest or weed control at 280 g/ha: 25%
  pest or weed control at 560 g/ha: 25%
[4]; 168 h, 7 DAA
  pest or weed control at 280 g/ha: 65%
  pest or weed control at 560 g/ha: 73%
[4]; 336 h, 14 DAA
  pest or weed control at 280 g/ha: 70%
  pest or weed control at 560 g/ha: 73%
[4]; 504 h, 21 DAA
  pest or weed control at 280 g/ha: 65%
  pest or weed control at 560 g/ha: 68%
[5]; 168 h, 7 DAA
  pest or weed control at 280 g/ha: 63%
  pest or weed control at 560 g/ha: 53%
[5]; 336 h, 14 DAA
  pest or weed control at 280 g/ha: 78%
  pest or weed control at 560 g/ha: 75%
[5]; 504 h, 21 DAA
  pest or weed control at 280 g/ha: 73%
  pest or weed control at 560 g/ha: 68%
[6]
  TGA Data (rate of weight loss, volatility): 0.02 µg/min
[7]; 168 h, 7 DAA
  pest or weed control at 280 g/ha: 56%
  pest or weed control at 560 g/ha: 61%
[7]; 336 h, 14 DAA
  pest or weed control at 280 g/ha: 63%
  pest or weed control at 560 g/ha: 70%
[7]; 504 h, 21 DAA
  pest or weed control at 280 g/ha: 59%
  pest or weed control at 560 g/ha: 63%
[8]; 280 g ae/ha, 7 DAA
  AVE. GLXMA: 4%
[8]; 280 g ae/ha, 14 DAA
  AVE. GLXMA: 2%
[8]; 280 g ae/ha, 21 DAA
  AVE. GLXMA: 3%
[8]; 560 g ae/ha, 7 DAA
  AVE. GLXMA: 9%
[8]; 560 g ae/ha, 14 DAA
  AVE. GLXMA: 5%
[8]; 560 g ae/ha, 21 DAA
  AVE. GLXMA: 5%
